The values below come from patent US7398161B2, “Sampling method and sampling device, and logD measuring method and logD measuring system” (Banyu Pharmaceutical Co., Ltd., priority 2004, dated 2008).

Structures are written as SMILES.

The conditions of series [1]: J. Med. Chem. 2001, 44, 2490-2497; cited from earlier work.
The nature of series [2]: logD measurement by sampling of octanol/buffer two-layer sample with plug liquid, HPLC and mass spectrometer. The settings on record: octanol/buffer solution.

In general, logD refers to the decadic logarithm of the distribution of all forms, ionised or not, between an organic phase and buffer at a given pH. A low value points to lower lipophilicity.

Turning to `C=CCc1ccccc1OCC(O)CNC(C)C` (stereo not drawn) [Alprenolol], the “logD, Literature value” in series [1] was 0.97. Moreover, the log distribution coefficient (logD) in series [2] came out at 1.2.
`NC(=O)N1c2ccccc2C=Cc2ccccc21` [Carbamazepine]: the logD in “physchem” was determined as 1.8. In addition, in series [1], the “logD, Literature value” is listed as 2.19.
As to `CN(C)CCCN1c2ccccc2Sc2ccc(Cl)cc21` [Chlorpromazine], the logD in the series “physchem” worked out at 3.5.
`C[C@@H]1C[C@H]2[C@@H]3CCC4=CC(=O)C=C[C@]4(C)[C@@]3(F)[C@@H](O)C[C@]2(C)[C@@]1(O)C(=O)CO` [Dexamethason]: the “logD, Literature value” in series [1] is listed as 1.83. For the same compound, the “logD, Measured value” in series [2] (average of three measurements (only one measurement for amiodarone)) is given as 1.9.
Compound `COc1ccc([C@@H]2Sc3ccccc3N(CCN(C)C)C(=O)[C@@H]2OC(C)=O)cc1` [Diltiazem] returned a logD in the series “physchem” of 2.3. In series [1], the “logD, Literature value” was 2.06.
For the compound `COCCc1ccc(OCC(O)CNC(C)C)cc1` (stereo not drawn) [Metoprolol], the pH-dependent lipophilicity (logD) in the series “physchem” amounted to 0.3.
On to `CC(C)(C)NCC(O)c1cc(O)cc(O)c1` (stereo not drawn) [Terbutaline], for which the “logD, Literature value” in series [1] is recorded as −1.35. For the same compound, the pH-dependent lipophilicity (logD) in series [2] was -1.9.
As for `c1ccc(-c2ccc(C(c3ccccc3)n3ccnc3)cc2)cc1` (stereo not drawn) [bifonazole], the logD in the series “physchem” was found to be 5.2. Besides, the “logD, Literature value” in series [1] was 4.77.
In the series “physchem”, `C[C@]12CC[C@@H]3c4ccc(O)cc4CC[C@H]3[C@@H]1CC[C@@H]2O` [estradiol] came in with a log distribution coefficient (logD) of 3.9.
